Laboratory results published in ChEMBL document CHEMBL1201862, “PubChem BioAssay data set” (2004).
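Dose response: 5 concentrations. Exposure: 48 h. Format: 96-well plates. Endpoint: linear interpolation; highest concentration if not reached. GI50 is the concentration that inhibits growth by half.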 The source made the active and inactive calls. Cut-off read from the data, not from the text of the source: active = GI50 up to about 1.1 µM and inactive = higher.

Tests used:
Assay in all cases: inhibition of tumour cell growth, NCI panel, 48 h
M14 = test system: M14
A498 = test system: A498
786-0 = test system: 786-0
HCC 2998 = test system: HCC 2998
UACC-257 = test system: UACC-257
EKVX = test system: EKVX
NCI-H522 = test system: NCI-H522
HL-60 = test system: HL-60
DLD-1 = test system: DLD-1
U-251 = test system: U-251
K562 = test system: K562
SF-268 = test system: SF-268
SR = test system: SR
UO-31 = test system: UO-31

Measured: GI50

N#CC(C#N)=C1NC(=O)C(c2ccccc2)C(=O)N1 (configuration not stated)
inactive: M14 > 100 µM | A498 > 100 µM | 786-0 > 100 µM | HCC 2998 > 100 µM | UACC-257 > 100 µM | EKVX > 100 µM | NCI-H522 > 100 µM | HL-60 > 100 µM | DLD-1 > 100 µM | U-251 > 100 µM | K562 > 100 µM | SF-268 > 100 µM | SR > 100 µM | UO-31 > 100 µM

COC(=O)c1cc(-c2cccn2C)c2c(c1C(=O)OC)c1ccccc1n2C
inactive: M14 77.4 µM | 786-0 > 100 µM | HCC 2998 45.5 µM | UACC-257 82 µM | NCI-H522 18.1 µM | HL-60 37.5 µM | DLD-1 7.62 µM | U-251 70.5 µM | K562 13.5 µM | SR 16.9 µM | UO-31 > 100 µM

CC(=O)O[C@H]1[C@@H]2[C@@H]3[C@@H](C[C@H]1C)[C@@H](C)CO[C@@]1(C)CC/C=C(/C)C[C@@H]2O[C@@H]31
inactive: M14 > 100 µM | A498 > 100 µM | 786-0 > 100 µM | HCC 2998 56.2 µM | UACC-257 > 100 µM | EKVX > 100 µM | NCI-H522 > 100 µM | HL-60 > 100 µM | DLD-1 > 100 µM | U-251 > 100 µM | K562 > 100 µM | SF-268 > 100 µM | SR > 100 µM | UO-31 > 100 µM

CC1(C)CC(=O)C(C(=O)Nc2cccs2)=C(O)C1
inactive: M14 36.7 µM | A498 28.8 µM | 786-0 49.9 µM | HCC 2998 48.5 µM | UACC-257 47.9 µM | EKVX 42 µM | NCI-H522 37.2 µM | HL-60 24.1 µM | DLD-1 39.5 µM | U-251 31.8 µM | K562 28.1 µM | SF-268 > 100 µM | SR 29.9 µM | UO-31 28.8 µM

O=C1NC(Cc2ccc(O)cc2)C(=O)N2CCCC12 (configuration not stated)
inactive: M14 > 100 µM | A498 > 100 µM | 786-0 > 100 µM | HCC 2998 > 100 µM | UACC-257 > 100 µM | EKVX > 100 µM | NCI-H522 > 100 µM | HL-60 > 100 µM | DLD-1 > 100 µM | U-251 > 100 µM | K562 > 100 µM | SF-268 > 100 µM | SR > 100 µM | UO-31 > 100 µM

O=C(O)CCC(=O)Oc1ccc(O)c2c1CCCC2=O
inactive: M14 > 100 µM | A498 > 100 µM | 786-0 > 100 µM | HCC 2998 > 100 µM | UACC-257 > 100 µM | EKVX 58.5 µM | NCI-H522 66.5 µM | HL-60 > 100 µM | DLD-1 > 100 µM | U-251 > 100 µM | K562 > 100 µM | SF-268 > 100 µM | SR 64 µM | UO-31 > 100 µM

COc1ccc2nc(-c3ccc(O)cc3)ccc2c1
inactive: M14 > 100 µM | 786-0 > 100 µM | HCC 2998 10.4 µM | UACC-257 > 100 µM | EKVX 95.5 µM | NCI-H522 > 100 µM | HL-60 > 100 µM | DLD-1 > 100 µM | K562 > 100 µM | SF-268 1.22 µM | SR > 100 µM | UO-31 > 100 µM

COc1ccc2c(c1)Oc1cc(O)ccc1[C@H]2c1ccccc1C(=O)NC(C)c1ccccc1 (some centres not stated)
inactive: M14 13.1 µM | A498 16.9 µM | 786-0 17.9 µM | HCC 2998 12.8 µM | UACC-257 17.4 µM | EKVX 16.5 µM | NCI-H522 12 µM | HL-60 14.4 µM | DLD-1 18.2 µM | U-251 14.4 µM | K562 16.8 µM | SF-268 19 µM | UO-31 10.9 µM

C[C@]12CCC(=O)C=C1CC[C@@H]1[C@@H]2C(=O)C[C@@]2(C)[C@H]1CC[C@]2(O)C(=O)CO [CORTISONE]
inactive: M14 > 100 µM | A498 > 100 µM | 786-0 > 100 µM | HCC 2998 > 100 µM | EKVX > 100 µM | NCI-H522 > 100 µM | HL-60 > 100 µM | DLD-1 > 100 µM | U-251 > 100 µM | K562 > 100 µM | SF-268 > 100 µM | SR > 100 µM | UO-31 > 100 µM

CC[C@@H]1OC2(C)CC(S(=O)(=O)c3ccccc3O)CC1O2 (some centres not stated)
inactive: M14 > 100 µM | 786-0 > 100 µM | HCC 2998 > 100 µM | UACC-257 > 100 µM | EKVX > 100 µM | NCI-H522 > 100 µM | HL-60 > 100 µM | DLD-1 > 100 µM | U-251 > 100 µM | K562 > 100 µM | SF-268 > 100 µM | SR > 100 µM | UO-31 > 100 µM

CCCC(=O)N[C@H]1C2C3CC4C5CC(C42)C1(C)C53 (some centres not stated)
inactive: M14 > 100 µM | A498 > 100 µM | 786-0 > 100 µM | HCC 2998 > 100 µM | UACC-257 > 100 µM | EKVX > 100 µM | NCI-H522 > 100 µM | HL-60 > 100 µM | DLD-1 > 100 µM | U-251 > 100 µM | K562 > 100 µM | SF-268 > 100 µM | SR > 100 µM | UO-31 > 100 µM

CC1(C)OCC([C@H]2CC23SCCCS3)O1 (some centres not stated)
inactive: M14 > 100 µM | A498 > 100 µM | 786-0 > 100 µM | UACC-257 > 100 µM | EKVX > 100 µM | NCI-H522 > 100 µM | HL-60 > 100 µM | DLD-1 > 100 µM | U-251 > 100 µM | K562 > 100 µM | SF-268 > 100 µM | SR > 100 µM | UO-31 > 100 µM

C[C@H]1CC[P+](Cc2ccccc2)(c2ccccc2)C1 (some centres not stated)
inactive: M14 > 100 µM | A498 > 100 µM | 786-0 > 100 µM | HCC 2998 67.6 µM | UACC-257 25.7 µM | EKVX 73.3 µM | NCI-H522 76.7 µM | HL-60 33.9 µM | DLD-1 > 100 µM | U-251 36.7 µM | K562 > 100 µM | SR 90.4 µM | UO-31 > 100 µM

COCCOCOC(C)(C)[C@H](CCOC(C)=O)O[Si](c1ccccc1)(c1ccccc1)C(C)(C)C
inactive: M14 14.1 µM | A498 20.4 µM | 786-0 18 µM | HCC 2998 9.1 µM | UACC-257 7.19 µM | EKVX 27.2 µM | NCI-H522 5.52 µM | HL-60 3.98 µM | DLD-1 13.5 µM | U-251 12.3 µM | K562 5.75 µM | SF-268 34.6 µM | SR 4.42 µM | UO-31 13.5 µM

Cc1cccc(NC(=O)/C(=N\N)C(c2cnc3ccc([N+](=O)[O-])cc3n2)[N+](=O)[O-])c1C (configuration not stated)
inactive: M14 > 100 µM | 786-0 > 100 µM | HCC 2998 > 100 µM | UACC-257 > 100 µM | EKVX > 100 µM | NCI-H522 40.2 µM | HL-60 > 100 µM | DLD-1 > 100 µM | SF-268 > 100 µM | SR > 100 µM | UO-31 > 100 µM
